# Results taken from patent US10975037B2 (priority 2018, dated 2021).
# Read-outs that look alike come from different tables or passages of the source. Marks after values point to notes of the source that are not given here.
# Tests used:
# [1] = tested on: IL-17 production by CD4 T cells under conditions which favor Th17 differentiation; assay: Human Th17 assay (IL-17 production by CD4 T cells); assay type: cell-based; settings: read-out: Human Th17 Assay, IC50
# Procedure: The human Th17 assay tests the effect of RORγt modulatory compounds on IL-17 production by CD4 T cells under conditions which favor Th17 differentiation. Total CD4^+ T cells were isolated from the peripheral blood mononuclear cells (PBMC) of healthy donors using a CD4^+ T cell isolation kit II, following the manufacturer's instructions (Miltenyi Biotec). […] 50 μL of compound at titrated concentrations in DMSO were added into each well at final DMSO concentration at 0.2%. Cells were incubated for 1 hour, then 50 μL of Th17 cell differentiation medium was added to each well. […] Cells were cultured at 37° C. and 5% CO2 for 3 days. Supernatants were collected and the accumulated IL-17 in culture was measured by using MULTI-SPOT® Cytokine Plate following manufacture's instruction (Meso Scale Discovery). The plate was read using Sector Imager 6000, and IL-17 concentration was extrapolated from the standard curve. The IC50s were determined by GraphPad.
# [2] = target: human RORγt ligand binding domain (RORγt LBD) (Homo sapiens (Human), UniProt P51449); assay: RORγt ThermoFluor® assay (thermal shift binding)
# Chain of human RORγt ligand binding domain (RORγt LBD) (P51449 other isoform, or with tags, fused parts or gaps): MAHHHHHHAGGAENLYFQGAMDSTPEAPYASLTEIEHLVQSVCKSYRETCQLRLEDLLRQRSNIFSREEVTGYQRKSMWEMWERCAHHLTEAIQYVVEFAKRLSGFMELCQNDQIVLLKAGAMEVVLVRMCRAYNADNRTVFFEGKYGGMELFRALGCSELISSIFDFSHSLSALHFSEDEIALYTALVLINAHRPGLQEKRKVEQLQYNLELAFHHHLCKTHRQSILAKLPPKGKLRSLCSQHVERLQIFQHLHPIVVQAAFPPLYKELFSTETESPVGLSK
# Outline: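 Thermal shift with 0.065 mg/mL RORγt LBD and 60 μM 1,8-ANS in 100 mM Hepes pH 7.0, 10 mM NaCl, 2.5 mM GSH, 0.002% Tween-20.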
# full-length human RORγt = full-length human RORγt (Homo sapiens (Human), UniProt P51449); assay: RORγt (full-length human) reporter assay, conditions A or B, HEK293T cells; assay type: cell-based
# Chain of full-length human RORγt (P51449 other isoform, or with tags, fused parts or gaps): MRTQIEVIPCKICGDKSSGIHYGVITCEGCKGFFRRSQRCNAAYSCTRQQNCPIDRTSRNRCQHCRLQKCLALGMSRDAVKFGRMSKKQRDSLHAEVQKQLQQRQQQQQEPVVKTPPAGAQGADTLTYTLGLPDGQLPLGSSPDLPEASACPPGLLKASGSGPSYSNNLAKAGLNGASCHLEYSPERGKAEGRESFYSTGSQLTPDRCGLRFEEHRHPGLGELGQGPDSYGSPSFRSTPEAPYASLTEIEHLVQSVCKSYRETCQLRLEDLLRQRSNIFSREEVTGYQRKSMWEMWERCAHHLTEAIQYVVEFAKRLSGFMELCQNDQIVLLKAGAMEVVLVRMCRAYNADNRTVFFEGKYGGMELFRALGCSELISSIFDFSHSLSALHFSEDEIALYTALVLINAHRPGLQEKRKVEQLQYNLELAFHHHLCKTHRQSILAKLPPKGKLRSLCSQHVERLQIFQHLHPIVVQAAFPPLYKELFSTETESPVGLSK
# Outline: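 Dual-luciferase read-out was taken after an overnight (16–20 h) compound exposure. Firefly data were scaled between DMSO-only and saturating reference compound, Renilla-normalized, then plotted against concentration for IC50.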
# RORγT = RORγT (Mus musculus (Mouse), UniProt P51450); settings: mice; cited from earlier work
# Chain of RORγT (P51450 other isoform, or with tags, fused parts or gaps): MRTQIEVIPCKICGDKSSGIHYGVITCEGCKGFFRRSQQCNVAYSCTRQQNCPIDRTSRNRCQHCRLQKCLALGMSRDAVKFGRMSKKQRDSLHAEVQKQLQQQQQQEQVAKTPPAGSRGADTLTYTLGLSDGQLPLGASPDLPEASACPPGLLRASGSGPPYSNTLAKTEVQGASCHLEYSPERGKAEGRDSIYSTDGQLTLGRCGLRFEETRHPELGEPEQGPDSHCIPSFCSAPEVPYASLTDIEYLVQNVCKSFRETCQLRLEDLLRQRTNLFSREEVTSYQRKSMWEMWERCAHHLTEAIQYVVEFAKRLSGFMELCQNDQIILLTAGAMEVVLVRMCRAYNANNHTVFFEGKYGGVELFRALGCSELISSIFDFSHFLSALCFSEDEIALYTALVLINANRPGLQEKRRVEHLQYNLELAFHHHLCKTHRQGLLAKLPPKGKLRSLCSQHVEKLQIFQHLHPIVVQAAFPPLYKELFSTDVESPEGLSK
# [3] = HEK-293T, 3 μM compound concentration (footnote *), read-out: RORγt (FL) Reporter Assay A or B, % inhibition
# [4] = RORγt (FL) Reporter Assay A or B, IC50, HEK293T cells
# [5] = read-out: ThermoFluor® Assay, Kd
# [6] = HEK-293T, 0.67 μM compound concentration (footnote ****), read-out: RORγt (FL) Reporter Assay A or B, % inhibition
# [7] = HEK-293T, read-out: RORγt (FL) Reporter Assay A or B, % inhibition
Compound,"IC50 ([1]; Homo sapiens, CD4+ T) [nM]",inhibition at 3 µM (full-length human RORγt; [3]) [%],IC50 (full-length human RORγt; [4]) [nM],"Kd [2, 5] [nM]",inhibition at 0.67 µM (full-length human RORγt; [6]) [%],also measured
"CCn1nc(C(=O)NC[C@]2(O)CC[C@@H](S(C)(=O)=O)C[C@H]2O)c(C)c1-c1ccc(C[C@H](C)C(F)(F)F)cc1OC(F)F (stereo in doubt) [Example 58, 5-(2-(difluoromethoxy)-4-((S*)-3,3,3-trifluoro-2-methylpropyl)phenyl)-N-(((1R*,2R*,4R*)-1,2-dihydroxy-4-(methylsulfonyl)cyclohexyl)methyl)-1-ethyl-4-methyl-1H-pyrazole-3-carboxamide]",19,100,9.7,,,"Kd ([2]; ThermoFluor® Assay, Kd): 2.6 nM"
"CCn1nc(C(=O)NC[C@H]2CC[C@H](S(C)(=O)=O)CC2)c(Cl)c1-c1ccc(CCC(F)(F)F)cc1OC(F)F [Example 222, 4-Chloro-5-(2-(difluoromethoxy)-4-(3,3,3-trifluoropropyl)phenyl)-1-ethyl-N-(((1r,4r)-4-(methylsulfonyl)cyclohexyl)methyl)-1H-pyrazole-3-carboxamide]",,,,0.75,,"IC50 [1]: 11 nM; RORγt (FL) Reporter Assay A or B, % inhibition (full-length human RORγt; 3 μM compound concentration (footnote *)): 101* %; IC50 (full-length human RORγt; HEK293T cells, read-out: RORγt (FL) Reporter Assay A or B, IC50): 6.2 nM"
"CCn1nc(C(=O)NC[C@]2(O)CC[C@@H](S(C)(=O)=O)CC2)c(Cl)c1-c1ccc(CC(C)C(F)(F)F)cc1OC(F)(F)F (stereo partly shown) [Example 191, 4-Chloro-1-ethyl-N-(((1s,4s)-1-hydroxy-4-(methylsulfonyl)cyclohexyl)methyl)-5-(4-(3,3,3-trifluoro-2-methylpropyl)-2-(trifluoromethoxy)phenyl)-1H-pyrazole-3-carboxamide]",63,,22,1.5,69,
"CCn1nc(C(=O)NC[C@H]2CC[C@H](S(C)(=O)=O)CC2)c(C)c1-c1ccc(CC(C)(C)C(F)(F)F)cc1OC [Example 227, 1-Ethyl-5-(2-methoxy-4-(3,3,3-trifluoro-2,2-dimethylpropyl)phenyl)-4-methyl-N-(((1r,4r)-4-(methylsulfonyl)cyclohexyl)methyl)-1H-pyrazole-3-carboxamide]",14,,9,1.1,92,
"CCn1nc(C(=O)NC[C@]2(O)CC[C@@H](S(N)(=O)=O)CC2)c(Cl)c1-c1ccc(CC(C)(C)C(F)(F)F)cc1OC(F)F [Example 62, 4-Chloro-5-(2-(difluoromethoxy)-4-(3,3,3-trifluoro-2,2-dimethylpropyl)phenyl)-1-ethyl-N-(((1s,4s)-1-hydroxy-4-sulfamoylcyclohexyl)methyl)-1H-pyrazole-3-carboxamide]",36,120,12,0.78,,
"CCn1nc(C(=O)NC[C@]2(CO)CC[C@@H](S(C)(=O)=O)CC2)c(Cl)c1-c1ccc(CC(C)C(F)(F)F)cc1OC (stereo partly shown) [Example 92, 4-Chloro-1-ethyl-N-(((1s*,4s*)-1-(hydroxymethyl)-4-(methylsulfonyl)cyclohexyl)methyl)-5-(2-methoxy-4-(3,3,3-trifluoro-2-methylpropyl)phenyl)-1H-pyrazole-3-carboxamide]",270,,66,39,,inhibition at 0.67 µM (full-length human RORγt; [7]): 87%
"CCn1nc(C(=O)NC[C@]2(C#N)CC[C@@H](S(C)(=O)=O)CC2)c(Cl)c1-c1ccc(N[C@H](C)C(F)(F)F)cc1OC [Example 32, 4-Chloro-N-(((1s,4S)-1-cyano-4-(methylsulfonyl)cyclohexyl)methyl)-1-ethyl-5-(2-methoxy-4-(((R)-1,1,1-trifluoropropan-2-yl)amino)phenyl)-1H-pyrazole-3-carboxamide]",62,,53,7.6,,inhibition at 2 µM (full-length human RORγt; [7]): 96%
"Cc1c(C(=O)NC[C@]2(O)CC[C@@H](S(C)(=O)=O)CC2)nn(C)c1-c1ccc(CCCC(F)(F)F)cc1OC(F)F [Example 161, 5-(2-(Difluoromethoxy)-4-(4,4,4-trifluorobutyl)phenyl)-N-(((1s,4s)-1-hydroxy-4-(methylsulfonyl)cyclohexyl)methyl)-1,4-dimethyl-1H-pyrazole-3-carboxamide]",200,81,7.8,32,,
"CCn1nc(C(=O)NC[C@]2(O)CC[C@@H](S(C)(=O)=O)CC2)c(Cl)c1-c1ccc(CC(C(F)(F)F)C(F)(F)F)cc1OC [Example 85, 4-Chloro-1-ethyl-N-(((1s,4s)-1-hydroxy-4-(methylsulfonyl)cyclohexyl)methyl)-5-(2-methoxy-4-(3,3,3-trifluoro-2-(trifluoromethyl)propyl)phenyl)-1H-pyrazole-3-carboxamide]",9.3,,2.6,0.43,103,
CC(=O)Nc1nc(C)c(S(=O)(=O)Nc2ccc(C(O)(C(F)(F)F)C(F)(F)F)cc2)s1 [SR1001],,,,,,Th17-dependent learned helplessness (RORγT): reduced Th17-dependent learned helplessness
